Measured values as given in patent US20090143318A1, “DEGRANULATION INHIBITOR” (Tropical Technology Center Ltd., priority 2006, published 2009).
Where a name gives a salt, the structure may show the parent alone. Read-outs that look alike come from different tables or passages of the source.

Test system: rat basophilic leukemia cells (RBL-2H3)
Assay: Degranulation inhibitory activity: hexosaminidase release-inhibitory activity test
Format: cell-based
Conditions: for IC50 / IC50 value (inhibition of release of hexosaminidase): IgE-sensitized RBL-2H3 cells, DNP-BSA antigen-induced degranulation; for Activity compared with the positive control ketotifen fumarate: statement in words, hexosaminidase release, RBL-2H3
Procedure: With regard to the measurement of degranulation inhibitory activity, a test for hexosaminidase release-inhibitory activity was carried out by referring to Non-Patent Document 1 and Non-Patent Document 2 (Kataoka M., Takagaki Y., Shoyakugaku Zasshi, 46(1), 25-29, 1992). Firstly, rat basophilic leukemia cells (RBL-2H3) were made into 5×10^5 cells/mL and seeded on a 96-well plate and anti-DNP-BSA mouse IgE antibody was added thereto so as to make its final concentration 0.29 μg/mL and incubated with 5% CO2 at 37° C. overnight in an incubator to sensitize the cells. Then the cells were washed with a phosphate-buffered physiological saline solution twice and 130 μL of a releasing mixture (comprising 116.9 mM of NaCl, 5.4 mM of KCl, 0.8 mM of MgSO4, 2.0 mM of CaCl2, 5.6 mM of glucose, 0.1% of bovine serum albumin and 25 mM of HEPES) was added thereto.
Then, Compounds (A) and (C) obtained in the invention were first dissolved in 25% ethanol, and then Compound (A) was diluted with 1% ethanol to achieve the final concentration in 7 serial dilutions in steps of from 1 μg/mL to 5 ng/mL; and Compound (C) was diluted with 1% ethanol to achieve the final concentration by 7 serial dilutions in steps of from 10 μg/mL to 50 ng/mL. Compound (B) was first dissolved in water, and then diluted with 1% ethanol to achieve the final concentration by 7 serial dilutions in steps of from 50 μg/mL to 50 ng/mL. Compound (D) was diluted with 4% ethanol-20 mM phosphate buffer to achieve the final concentration by 4 serial dilutions in steps of 2.6 μg/mL to 165 ng/mL. 10 μL portion samples of all concentrations of Compounds (A), (B), (C) and (D) were added to the cells, respectively, and allowed to stand at 37° C. under 5% CO2 in an incubator for 10 minutes. Then 10 μL of an antigen DNP-BSA (2 μg/mL) was added, the mixture was allowed to stand in an incubator for 1 hour to induce degranulation, and centrifuged to collect the supernatant. 15 μL of a 5 mM hexosaminidase substrate solution (p-nitrophenyl-β-D-glucosaminide) was added to 45 μL of the supernatant liquid, the mixture was made to react at 37° C. for 3 hours and 180 μL of a solution for stopping the reaction (0.1M NaHCO3/Na2CO3; pH 10.0) was added thereto. After completion of the reaction, absorbance at 415 nm was measured and the hexosaminidase release-inhibitory activity was calculated by the following formula. Meanwhile, a positive control (200 μM of ketotifen fumarate) and a negative control corresponding to the final solvent concentration for the test substance were prepared.
Hexosaminidase release-inhibitory Activity(%)=[1−(S−B/C−b)]×100
S: absorbance of the test substance upon addition of cells
B: absorbance upon addition of the test substance in the absence of the cells
C: absorbance of the negative control
b: absorbance in the absence of cells

[1] = Rattus norvegicus, mass concentration, read-out: IC50 value (inhibition of release of hexosaminidase)
[2] = Rattus norvegicus, molar concentration, read-out: IC50 value (inhibition of release of hexosaminidase), molar value in brackets
[3] = molar concentration, read-out: IC50 value (inhibition of release of hexosaminidase), molar value in brackets

## CN1CCC(=C2c3ccccc3CC(=O)c3sccc32)CC1 [Ketotifen fumarate, ketotifen fumarate, reference compound]
[1]
  IC50: 71.8 µg/mL
[2]
  IC50: 169 µM

## COc1cc2c(=O)oc3c(OC)c(O)cc4c(=O)oc(c1OC)c2c34 [Compound (C), 3,3′,4-tri-O-methylellagic acid]
[1]
  IC50: 4.47 µg/mL
[2]
  IC50: 13 µM
  Activity compared with the positive control ketotifen fumarate: higher activity

## O=c1oc2c3c(cc4c(=O)oc5c(O)c(O)cc1c5c24)OCO3 [Compound (D), 3,4-dioxoloellagic acid]
[1]
  IC50: 1.07 µg/mL
[2]
  IC50: 3 µM
  Activity compared with the positive control ketotifen fumarate: higher activity

## COc1c(O)cc2c(=O)oc3c(O)c(OC4O[C@H](CO)[C@@H](O)[C@H](O)[C@H]4O)cc4c(=O)oc1c2c34 (stereo partly shown) [Compound (B), 3-O-methylellagic acid 4′-glucoside]
Mass concentration
  IC50 value (inhibition of release of hexosaminidase): 14.83 µg/mL
[3]
  IC50: 31 µM
  Activity compared with the positive control ketotifen fumarate: higher activity

## O=c1oc2c3c(cc4c(=O)oc5c(O)c(OC6O[C@H](CO)[C@@H](O)[C@H](O)[C@H]6O)cc1c5c24)OCO3 (stereo partly shown) [Compound (A), 3,4-dioxoloellagic acid 4′-glucoside]
Mass concentration
  IC50 value (inhibition of release of hexosaminidase): 0.00663 µg/mL
[3]
  IC50: 0.014 µM
